Test results as given in patent US20210293825A1, “METHODS FOR PRECISION THERAPEUTIC TARGETING OF HUMAN CANCER CELL MOTILITY AND KITS THEREOF” (UNITED STATES GOVERNMENT AS REPRESENTED BY THE DEPARTMENT …, priority 2018, published 2021).

Legend:
[1] = system: 20 phosphatases; test: PhosphataseProfiler assay platform (Millipore); assay type: biochemical; conditions: competition with substrate protein
Source text: Kinase assay system #3. KinaseProfiler™ and PhosphataseProfiler™ assay platforms (Millipore). This platform is radiometric-based (considered gold standard). It measures competition with respect to ATP for kinases and substrate protein for phosphatases. Most proteins were expressed via an insect-based system, and it evaluates a panel of 284 kinases and 20 phosphatases. […] Important negative findings include: MKK4, MKK6, p38 MAPK, MAPKAPK2, RAF1, ERK, MEK1, JNK1, 2 and 3, and numerous other MAPK cascade-associated kinases.

[2] = system: NCI 60 cell line panel; test: NCI 60 cell line panel screening; assay type: cell-based; conditions: initial screening per DTP protocol
Source text: KBU2046 was submitted to the Developmental Therapeutics Program (DTP) of the US National Cancer Institute (NCI), underwent initial screening across the NCI 60 cell line panel per DTP protocol (Shoemaker, R. H., Nat Rev Cancer 6, 813-23 (2006)) and the resultant COMPARE diagram is depicted herein.

[3] = system: protein phosphorylation in PC3-M and PC3 cells; test: KinomeView phospho-motif antibody screen; assay type: cell-based, human; conditions: 10 μM, 3 days, ±TGFβ
Source text: Seeking to identify KBU2046's biological target(s), alternative methods were pursued. The KinomeView® panel of antibodies (Cell Signaling Technology, Inc.) detect established protein phosphorylation motifs, and were used to probe for KBU2046-induced changes in protein phosphorylation (FIG. 4a and FIG. 17). Phosphoprotein changes that met the following criteria were prioritized: were induced in cells in vitro as well as in tumors of treated mice (from FIG. 2a), that counteracted transforming growth factor β (TGFβ)-induced effects, and that were reproducible. TGFβ is ubiquitous in vivo, is known to increase PCa cell invasion (Huang, X. et al., Cancer Research 65, 3470-8 (2005)), and KBU2046's anti-invasion efficacy remains in spite of TGFβ-stimulated increases in cell invasion (FIG. 18). Genistein was evaluated under identical treatment conditions for comparison. […] In tumors of treated animals KBU2046 had this same effect on this 83 kDa protein band (green arrow in FIG. 17a). The high molecular selectivity of KBU2046 was further supported by its failure to inhibit over 400 different protein kinases and 20 phosphatases examined, in three different in vitro assay systems (see, Example 1).
Phospho-proteomic Analysis. The Kinoview™ and PhosphoScan™ assays were performed by Cell Signaling Technology Inc. […]

[4] = target: T1, MKK4 (Homo sapiens, UniProt P45985, S257E/T261E); test: Fluorescence-based thermal shift assay, MKK4; assay type: binding; set-up: made in house
T1 sequence (P45985 37-399 S257E/T261E): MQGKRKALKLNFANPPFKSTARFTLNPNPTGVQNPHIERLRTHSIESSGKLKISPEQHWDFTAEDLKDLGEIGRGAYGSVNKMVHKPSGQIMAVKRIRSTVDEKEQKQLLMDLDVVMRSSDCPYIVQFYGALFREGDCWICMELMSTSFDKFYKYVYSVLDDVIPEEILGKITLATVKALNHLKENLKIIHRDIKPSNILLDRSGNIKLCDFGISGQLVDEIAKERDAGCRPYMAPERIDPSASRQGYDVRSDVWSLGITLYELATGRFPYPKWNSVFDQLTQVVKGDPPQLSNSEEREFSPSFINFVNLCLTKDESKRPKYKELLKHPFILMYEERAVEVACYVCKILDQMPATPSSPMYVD
Protocol: FIG. 16a is a depiction of established MKK4 pathway regulating human PCa cell metastasis. […] Values are the mean±SD (of N=2 replicates) increase in melting temperature (ΔTm) of purified recombinant MKK4 induced by the indicated concentrations of KBU2046 or genistein. […] The indicated concentrations of KBU2046 were added to recombinant activated MKK4, and its ability to phosphorylate kinase dead p38a MAPK (K53A) was measured by Western blot for total (p38 MAPK) and phosphorylated (pp38 MAPK) forms of p38 MAPK. […] PC3-M cells were pre-treated for 24 hours with 50 μM KBU2046 or genistein, as indicated, then with TGFβ, and Western blot performed. These findings are from a single experiment, with similar findings in identical separate experiments, repeated at least once.
Biophysical and Biochemical Binding Assays. Fluorescent thermal shift (Krishna, S. N. et al., PLoS One 8, e81504 (2013)), isothermal titration calorimetry (Chavez, J. D. et al., Mol Cell Proteomics 12, 1451-67 (2013)), and biolayer interferometry assays (Makowska-Grzyska, M. et al., Biochemistry 51, 6148-63 (2012)), were performed using MEK4EE (37-399, S257E, T261E) cloned into pMCSG7 and KRX Competent E. coli cells (Promega Inc.) and full-length HSP90B and CDC37 vectors and Rosetta BL-21 and BL-21 DE-3 competent E. coli cells, respectively. […]

O=C1c2ccccc2OCC1c1ccc(F)cc1 (racemic) [KBU2046, (±)-3(4-fluorophenyl)chroman-4-one]
inhibition of phosphatase activity [1]: No evidence supports inhibition of phosphatase activity | cell toxicity [2]: minimal-to-no cell toxicity | changes in protein phosphorylation [3]: induced a single change that met the pre-specified criteria | binding to MKK4 [4]: did not bind to MKK4
